# Source: patent publication US10961242B2, “Compounds as autotaxin inhibitors and pharmaceutical compositions comprising the same” (LegoChem Biosciences, Inc., priority 2018, dated 2021)
# Where a name gives a salt, the structure may show the parent alone. Read-outs that look alike come from different tables or passages of the source.
# Tests used:
# human ATX = human ATX (Homo sapiens (Human), UniProt Q13822); test: Bis-pNPP assay; format: biochemical; conditions: bis-pNPP substrate, read-out: Enzymatic assay (IC50) bis-pNPP
# Description: Eight-fold dilution of each test compound solution (10 μM, 100% dimethyl sulfoxide) is carried out on 96-well V bottom plate (Costar 3363). After […] of each test compound solution (100% dimethyl sulfoxide) with deionized distilled water, 10 μL of the diluted each test compound solution (10% dimethyl sulfoxide) was aliquoted to a black flat bottom 96-well plate (Costar 3915). 50 μL of 60 mM Tris-HCl (pH9.0) buffer was added thereto, and subsequently 20 μL of 3.75 nM human ATX solution (buffer solution: 50 mM Tris-HCl (pH8.5), 5 mM CaCl2, 2.5 mM MgCl2, 0.01% Brij35) and 20 μL of 25 mM Bis-pNPP (bis(p-Nitrophenyl)-phosphate sodium salt) solution (buffer solution: 50 mM Tris-HCl (pH9.0)) were added thereto, respectively, followed by mixing. […] Furthermore, IC50 values that are shown in Table 3 were calculated using Grafit5 Software based on the inhibitory activity percentage ratio.
# human ENPP2 = human ENPP2 (Homo sapiens (Human), UniProt Q13822); test: Inhibitory activity on human ENPP2 (FS-3 assay); format: biochemical
# Description: Two-fold dilution of each test compound solution (10 μM, 100% dimethyl sulfoxide) is carried out on 96-well V bottom plate (Costar 3363). After ten-fold dilution of each the test compound solution (100% dimethyl sulfoxide) with deionized distilled water, 10 μL of the diluted each mpound solution (10% dimethyl sulfoxide) was aliquoted to a black flat bottom 96-well plate (Costar 3915).
# [1] = FS-3 assay, same process as Test example 1, read-out: Enzymatic assay (IC50) FS-3
Compound,IC50 (human ATX) [nM],IC50 (human ENPP2; [1]) [nM],IC50 (human ENPP2) [nM]
"NC1CCC(c2nn(CC(=O)N3CCc4[nH]nnc4C3)cc2-c2cnc(NC3Cc4ccccc4C3)nc2)CC1 (stereo not drawn) [Compound 99, 2-[3-(4-aminocyclohexyl)-4-{2-[(2,3-dihydro-1H-inden-2-yl)amino]pyrimidin-5-yl}-1H-pyrazol-1-yl]-1-{1H,4H,5H,6H,7H-[1,2,3]triazolo[4,5-c]pyridin-5-yl}ethan-1-one]",5.59,2.8,–
"Cc1nc(-c2cnc(NC3Cc4ccccc4C3)nc2)cn1CC(=O)N1CCc2[nH]nnc2C1 [Compound 107, 2-(4-{2-[(2,3-dihydro-1H-inden-2-yl)amino]pyrimidin-5-yl}-2-methyl-1H-imidazol-1-yl)-1-{1H,4H,5H,6H,7H-[1,2,3]triazolo[4,5-c]pyridin-5-yl}ethan-1-one]",4.87,1.56,–
"O=C(Cc1cn(-c2ccc(Cl)cc2)c(-c2cnc(NC3Cc4ccccc4C3)nc2)n1)N1CCc2[nH]nnc2C1 [Compound 117, 2-[1-(4-chlorophenyl)-2-{2-[(2,3-dihydro-1H-inden-2-yl)amino]pyrimidin-5-yl}-1H-imidazol-4-yl]-1-{1H,4H,5H,6H,7H-[1,2,3]triazolo[4,5-c]pyridin-5-yl}ethan-1-one]",> 100,1.84,–
"O=C(CO)N1CCC(c2nn(CC(=O)N3CCc4[nH]nnc4C3)cc2-c2cnc(NC3Cc4ccccc4C3)nc2)CC1 [Compound 118, 1-[4-(4-{2-[(2,3-dihydro-1H-inden-2-yl)amino]pyrimidin-5-yl}-1-(2-oxo-2-{1H,4H,5H,6H,7H-[1,2,3]triazolo[4,5-c]pyridin-5-yl}ethyl)-1H-pyrazol-3-yl)piperidin-1-yl]-2-hydroxyethan-1-one]",5.3,< 1.56,–
"O=C(O)c1ccc(-c2nn(CC(=O)N3CCc4[nH]nnc4C3)cc2-c2cnc(NC3Cc4ccccc4C3)nc2)cc1 [Compound 119, 4-(4-{2-[(2,3-dihydro-1H-inden-2-yl)amino]pyrimidin-5-yl}-1-(2-oxo-2-{1H,4H,5H,6H,7H-[1,2,3]triazolo[4,5-c]pyridin-5-yl}ethyl)-1H-pyrazol-3-yl)benzoic Acid]",9.19,< 1.56,–
"NNC(=O)C1=CCN(C(=O)Cc2nnc(-c3cnc(NC4Cc5ccccc5C4)nc3)o2)CC1 [Compound 120, 1-[2-(5-{2-[(2,3-dihydro-1H-inden-2-yl)amino]pyrimidin-5-yl}-1,3,4-oxadiazol-2-yl)acetyl]-1,2,3,6-tetrahydropyridine-4-carbohydrazide Hydrochloride]",380,–,25.9
